Source: patent US6777578B2, “Hydroxyphenstatin and the prodrugs thereof” (Arizona Board of Regents, priority 2000, dated 2004)
Converted amounts (≈) assume the structure as drawn. Like-named read-outs stand apart in the source and are kept apart here. Each block holds one molecule with its values, some of them ahead of it.

Tests used:
tubulin [1] = assay: Tubulin polymerization assay; type: biochemical; details: read-out: Inhibition of Tubulin Polymerization (μM IC50 ± SD)
Protocol: (§1) The tubulin polymerization and colchicine binding assays were performed as described previously (See: […]), except that Beckman DU7400/7500 spectrophotometers equipped with “high performance” temperature controllers were used in the former assay. Unlike the manual control possible with the previously used Gilford spectrophotometers, the polymerization assays required use of programs provided by MDB analytical Associates, South Plainfield, N.J., since the Beckman instruments are microprocessor controlled. The Beckman instruments were unable to maintain 0° C., and the lower temperature in the assays fluctuated between 2 and 4° C. Temperature changes were, however, more rapid than in the Gilford instruments with the jump from the lower temperature to 30° C. taking about 20 sec. and the reverse jump about 100 sec.

tubulin [2] = assay: Colchicine binding assay; details: [3H]colchicine binding to tubulin
Protocol: as §1

KM20L2 = assay: Human cancer cell growth inhibition, colon KM20L2; type: cell-based
Protocol: (§2) The following measures are used to express drug activity giving the drug dose, which reduces cell growth to a specified percentage of growth:
(§3) ED50 (P388) and GI50 (HTCL) are the drug doses needed to reduce the percent growth to 50%. There is no mathematical difference between ED50 and GI50, which are both calculated using the same formula. The only difference is historical usage.
(§4) Each drug is tested at five (5) doses: 100-10-1-0.1-0.01 μg/ml. Percent Growths are calculated for each dose. The two (or three) doses with growth values above, below, (or near to) 50% growth are used to calculate the ED50/GI50 using a linear regression formula. The log of the dose is used during the regression computation. If no dose yields a growth value under 50%, the results are expressed as: ED50>(highest dose). If no dose yields a growth value higher than 50%, then ED50<(lowest dose). Similar calculations are performed for the TGI at 0% growth, and at −50% growth for the LC50.

P388 = assay: Cancer cell growth inhibition, murine P388 lymphocytic leukemia; type: cell-based
Protocol: as §2, §3, §4

NCI-H460 = assay: Human cancer cell growth inhibition, lung-NSC NCI-H460; type: cell-based
Protocol: as §2, §3, §4

NCI 60-cell screen = assay: NCI 60-cell screen; type: cell-based; details: read-out: mean-panel GI50
BXPC-3 = assay: Human cancer cell growth inhibition, pancreas BXPC-3; type: cell-based; details: Pancreas-a
Protocol: as §2, §3, §4

[3] = tested on: two fungal and eight bacterial strains; assay: Antibiotic screening against the whole panel; type: cell-based; details: for inhibition of growth of the two fungal and eight bacterial strains tested: at 100 μg/disk
Excerpt: (§5) The new substances were screened against the bacteria Stenotrophomonas maltophilia, Micrococcus luteus, Staphylococcus aureus, Escherichia coli, Enterobacter cloacae, Enterococcus faecalis, Streptococcus pneumoniae, Neisseria gonorrhoeae, and the fungi Candida albicans and Cryptococcus neoformans, according to established disk susceptibility testing protocols.

SF-295 = assay: Human cancer cell growth inhibition, CNS SF-295; type: cell-based
Protocol: as §2, §3, §4

DU-145 = assay: Human cancer cell growth inhibition, prostate DU-145; type: cell-based
Protocol: as §2, §3, §4

RPMI-7951 = assay: Human cancer cell growth inhibition, melanoma RPMI-7951; type: cell-based
Protocol: as §2, §3, §4

Micrococcus luteus = assay: Disk susceptibility testing, Micrococcus luteus; type: cell-based
Excerpt: as §5

[4] = Solubility in distilled water; type: physicochemical; details: distilled water at 25° C.
Escherichia coli = assay: Disk susceptibility testing, Escherichia coli; type: cell-based
Excerpt: as §5

Neisseria gonorrhoeae = assay: Disk susceptibility testing, Neisseria gonorrhoeae; type: cell-based
Excerpt: as §5

Staphylococcus aureus = assay: Disk susceptibility testing, Staphylococcus aureus; type: cell-based
Excerpt: as §5

[5] = tested on: Stenotrophomonas maltophilia; assay: Disk susceptibility testing, Stenotrophomonas maltophilia; type: cell-based
Excerpt: as §5

Cryptococcus neoformans = assay: Disk susceptibility testing, Cryptococcus neoformans; type: cell-based
Excerpt: as §5

Candida albicans = assay: Disk susceptibility testing, Candida albicans; type: cell-based
Excerpt: as §5

IC50 (tubulin [1]): 1.1 ± 0.07 µM
% Inhibition of Colchicine Binding ± SD (tubulin [2]): 99.6 ± 0.7%
Compound: COc1ccc(/C=C\c2cc(OC)c(OC)c(OC)c2)c(O)c1O [Compound 3a, combretastatin A-1, reference compound]

Compound: COc1ccc(/C=C\c2cc(OC)c(OC)c(OC)c2)cc1OP(=O)(O)O [Compound 3c]
IC50 (tubulin [1]): > 40 µM

Compound: COc1ccc(C(=O)c2cc(OC)c(OC)c(OC)c2)c(O)c1O [Compound 6a]
GI50 (KM20L2; Homo sapiens, KM-20L2, read-out: GI50): 1.2 µg/mL (≈ 3.59 µM)
GI50 (P388; Mus musculus, read-out: GI50): 0.315 µg/mL (≈ 0.942 µM)
GI50 (NCI-H460; Homo sapiens, read-out: GI50): 0.21 µg/mL (≈ 0.628 µM)
IC50 (tubulin [1]): 0.82 ± 0.2 µM
GI50 (NCI 60-cell screen; 60 cell): 167 nM
GI50 (BXPC-3; Homo sapiens, read-out: GI50): 3.3 µg/mL (≈ 9.87 µM)
inhibition of growth of the two fungal and eight bacterial strains tested [3]: none of these compounds inhibited growth
GI50 (SF-295; Homo sapiens, read-out: GI50): 0.04 µg/mL (≈ 0.12 µM)
melting point: 171.1 to 171.9 °C
% Inhibition of Colchicine Binding ± SD (tubulin [2]): 77 ± 4%
GI50 (DU-145; Homo sapiens, read-out: GI50): 0.048 µg/mL (≈ 0.144 µM)
GI50 (RPMI-7951; Homo sapiens, read-out: GI50): 0.58 µg/mL (≈ 1.73 µM)

GI50 (P388; Mus musculus, read-out: GI50): > 10 µg/mL
GI50 (NCI-H460; Homo sapiens, read-out: GI50): > 10 µg/mL
GI50 (BXPC-3; Homo sapiens, read-out: GI50): > 10 µg/mL
GI50 (SF-295; Homo sapiens, read-out: GI50): > 10 µg/mL
melting point: 70.2 to 71.7 °C
GI50 (DU-145; Homo sapiens, read-out: GI50): > 10 µg/mL
GI50 (RPMI-7951; Homo sapiens, read-out: GI50): > 10 µg/mL
Compound: COCOc1c(OC)ccc(C(=O)c2cc(OC)c(OC)c(OC)c2)c1OCOC [Compound 6c, 2′,3′-Bis(methoxymethyloxy)-3,4,4′,5-tetramethoxybenzophenone]
inhibition of growth of the two fungal and eight bacterial strains tested [3]: none of these compounds inhibited growth

Compound: COc1cc(C(=O)c2ccc(OC)c(OP(=O)(OCc3ccccc3)OCc3ccccc3)c2OP(=O)(OCc2ccccc2)OCc2ccccc2)cc(OC)c1OC [Compound 6d, 2′,3′-O-Di-(bisbenzylphosphoryl)-hydroxyphenstatin]
Minimum inhibitory Concentration (μg/disk) (Micrococcus luteus): 50-100 μg/disk
GI50 (P388): 2.55 µg/mL (≈ 2.98 µM)
GI50 (NCI-H460): >10 µg/mL
GI50 (BXPC-3): >10 µg/mL
GI50 (SF-295): >10 µg/mL
GI50 (DU-145): >10 µg/mL
GI50 (RPMI-7951): >10 µg/mL

Compound: COc1cc(C(=O)c2ccc(OC)c(OP(=O)([O-])[O-])c2OP(=O)([O-])[O-])cc(OC)c1OC.[Na+].[Na+].[Na+].[Na+] [Compound 6e, Sodium Hydroxyphenstatin Diphosphate]
solubility [4]: 100 mg/mL
GI50 (KM20L2): 5.9 µg/mL
GI50 (P388): 0.0336 µg/mL
GI50 (NCI-H460): 0.35 µg/mL
IC50 (tubulin [1]): > 40 µM
GI50 (NCI 60-cell screen; NCI 60-cell screen, mean of panel): 167 nM
GI50 (BXPC-3): 5.3 µg/mL
antifungal and/or antibacterial action [3]: did not
GI50 (SF-295): 0.23 µg/mL
GI50 (DU-145): 0.3 µg/mL

Compound: COc1cc(C(=O)c2ccc(OC)c(OP(=O)([O-])[O-])c2OP(=O)([O-])[O-])cc(OC)c1OC.[Li+].[Li+].[Li+].[Li+] [Compound 6f, Lithium Hydroxyphenstatin Diphosphate]
solubility [4]: 25 mg/mL

Compound: COc1cc(C(=O)c2ccc(OC)c(OP(=O)([O-])[O-])c2OP(=O)([O-])[O-])cc(OC)c1OC.[Ca+2].[Ca+2] [Compound 6h, Calcium Hydroyphenstatin Diphosphate]
solubility [4]: < 1 mg/mL

melting point: 122.3 to 124.3 °C
Compound: COc1ccc(Br)c(O)c1O [Compound 7a, 1-Bromo-2,3dihydroxy-4methoxy-benzene]
Minimum inhibitory Concentration (μg/disk) (Escherichia coli): 50-100 μg/disk
Minimum inhibitory Concentration (μg/disk) (Neisseria gonorrhoeae): <6.25 μg/disk
Minimum inhibitory Concentration (μg/disk) (Staphylococcus aureus): 25-50 μg/disk
Minimum inhibitory Concentration (μg/disk) [5]: 25-50 μg/disk

Compound: COc1ccc(Br)c(O[Si](C)(C)C(C)(C)C)c1O[Si](C)(C)C(C)(C)C [Compound 7b, 1-Bromo-2,3-bis(tert-butyldimethylsilyl-oxy)-4-methoxy-benzene]
inhibition of growth of the two fungal and eight bacterial strains tested [3]: none of these compounds inhibited growth
melting point: 68.9 to 69.6 °C

Compound: COc1cc(C(=O)N2CCOCC2)cc(OC)c1OC [Compound 8a, N-(3,4,5Trimethoxybenzoyl)-morpholine]
inhibition of growth of the two fungal and eight bacterial strains tested [3]: none of these compounds inhibited growth

Compound: COc1cccc(C=O)c1OC(C)=O [Compound 10, 2-Acetoxy-3methoxy-benzaldehyde]
Minimum inhibitory Concentration (μg/disk) (Cryptococcus neoformans): 25-50 μg/disk
melting point: 75.4 to 76.2 °C
Minimum inhibitory Concentration (μg/disk) [5]: 50-100 μg/disk

Compound: COc1ccc(Br)c(C=O)c1OC(C)=O [Compound 11, 2-Acetoxy-3methoxy-6bromo-benzaldehyde]
Minimum inhibitory Concentration (μg/disk) (Cryptococcus neoformans): 6.25-12.5 μg/disk
Minimum inhibitory Concentration (μg/disk) (Escherichia coli): 50-100 μg/disk
Minimum inhibitory Concentration (μg/disk) (Neisseria gonorrhoeae): 25-50 μg/disk
melting point: 121.6 to 123.4 °C
Minimum inhibitory Concentration (μg/disk) (Candida albicans): 12.5-25 μg/disk

Compound: COc1ccc(Br)c(C=O)c1O [Compound 12, 2-Hydroxy-3-methoxy-6bromo-benzaldehyde]
Minimum inhibitory Concentration (μg/disk) (Cryptococcus neoformans): 12.5-25 μg/disk
Minimum inhibitory Concentration (μg/disk) (Neisseria gonorrhoeae): 12.5-25 μg/disk
Minimum inhibitory Concentration (μg/disk) (Candida albicans): 50-100 μg/disk

melting point: 124.6 to 125.9 °C
Compound: COc1cc(C(=O)c2ccc(OC)c(OC)c2OC)cc(OC)c1OC [Compound 13, 2′,3,3′,4,4′,5-Hexamethoxybenzophenone]
inhibition of growth of the two fungal and eight bacterial strains tested [3]: none of these compounds inhibited growth

Compound: COc1cc(C(O)c2ccc(OC)c(OC)c2OC)cc(OC)c1OC (stereo not shown) [Compound 14, 2′,3,3′,4,4′,5Hexamethoxydiphenylcarbinol]
inhibition of growth of the two fungal and eight bacterial strains tested [3]: none of these compounds inhibited growth

melting point: 79.9 to 81.8 °C
Compound: COCOc1c(OC)ccc(C(O)c2cc(OC)c(OC)c(OC)c2)c1OCOC (stereo not shown) [Compound 15, 2′,3′-Bis(methoxymethyloxy)-3,4,4′,5tetramethoxydiphenylcarbinol]
inhibition of growth of the two fungal and eight bacterial strains tested [3]: none of these compounds inhibited growth
